From patent US8778966B2, “Quinolinone derivatives as PARP and tank inhibitors” (Janssen Pharmaceutica, NV, priority 2007, dated 2014)

Assays:
Human PARP-1 enzyme = target: T1, Human PARP-1 enzyme (Homo sapiens, UniProt P09874); experiment: In vitro Scintillation Proximity Assay (SPA) for PARP-1 inhibitory activity; format: biochemical; conditions: read-out: in vitro SPA assay PARP-1 pIC50 (converted)
T1 construct: purchased Trevigen
Procedure, shortened: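 SPA assay: nicked-DNA-activated PARP-1 (0.1–0.2 μg/ml) ADP-ribosylates biotinylated histones (2 μg/ml) using [3H]-NAD+, 20 min at RT in Tris pH 8/DTT/MgCl2, stopped with 2 mM NAD+. Blank-subtracted cpm expressed as % control; IC50 by linear interpolation, reported as pIC50 (10−5 to 3×10−9 M tested).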

HCT116 cells = experiment: Antiproliferative activity, Alamar Blue assay, HCT116 cells; format: cell-based, human; conditions: Homo sapiens, HCT-116, HCT116 cells; read-out: HCT116 antiproliferative activity pIC50 (converted)
Procedure, shortened: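 HCT116 cells seeded, adhered 24 h, then exposed to compound for 4 days; Alamar Blue (resazurin) added for 4 h at 37 °C, fluorescence read at 540/590 nm. Viability as % of untreated control, triplicate wells; IC50 by probit analysis, reported as pIC50.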

T1 sequence (P09874 whole entry): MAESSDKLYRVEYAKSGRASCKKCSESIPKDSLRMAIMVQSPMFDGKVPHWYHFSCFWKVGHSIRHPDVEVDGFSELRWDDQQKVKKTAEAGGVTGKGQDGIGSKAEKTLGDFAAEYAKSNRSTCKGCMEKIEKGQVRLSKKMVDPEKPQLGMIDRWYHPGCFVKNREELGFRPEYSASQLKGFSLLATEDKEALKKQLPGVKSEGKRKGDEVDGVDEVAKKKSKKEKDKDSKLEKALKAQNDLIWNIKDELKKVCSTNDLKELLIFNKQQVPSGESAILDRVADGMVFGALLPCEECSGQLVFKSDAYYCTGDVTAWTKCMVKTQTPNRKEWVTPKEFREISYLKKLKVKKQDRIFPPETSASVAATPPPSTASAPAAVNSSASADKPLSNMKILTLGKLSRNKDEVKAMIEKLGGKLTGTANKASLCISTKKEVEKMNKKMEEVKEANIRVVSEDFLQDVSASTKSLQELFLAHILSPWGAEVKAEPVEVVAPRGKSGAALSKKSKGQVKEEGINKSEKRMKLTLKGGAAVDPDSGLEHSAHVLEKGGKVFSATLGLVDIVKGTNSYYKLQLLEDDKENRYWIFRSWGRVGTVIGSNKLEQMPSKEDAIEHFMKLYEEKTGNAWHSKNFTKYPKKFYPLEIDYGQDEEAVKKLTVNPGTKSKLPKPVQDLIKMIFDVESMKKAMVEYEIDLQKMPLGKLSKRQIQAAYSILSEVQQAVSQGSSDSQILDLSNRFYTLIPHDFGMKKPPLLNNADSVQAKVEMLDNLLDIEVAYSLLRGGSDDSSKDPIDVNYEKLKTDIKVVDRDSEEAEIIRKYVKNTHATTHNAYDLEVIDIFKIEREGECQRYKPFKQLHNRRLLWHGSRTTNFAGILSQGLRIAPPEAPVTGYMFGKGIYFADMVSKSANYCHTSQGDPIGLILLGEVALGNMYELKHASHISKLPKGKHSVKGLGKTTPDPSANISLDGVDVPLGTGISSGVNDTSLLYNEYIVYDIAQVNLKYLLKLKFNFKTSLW

IC50 (Human PARP-1 enzyme) | IC50 (HCT116 cells) | SMILES
1.58 µM | 1.26 µM | CCc1cc2ccc(C(C)(C#N)CCOc3cccc4ccccc34)cc2[nH]c1=O (stereo not drawn) [Compound 158]
0.251 µM | > 10 µM | CCc1cc2ccc(C(C)(C#N)CCOc3ccccc3C(C)=O)cc2[nH]c1=O (stereo not drawn) [Compound 159]
0.794 µM | 2 µM | CCc1cc2ccc(C(C)(C#N)CCOc3ccc(Br)cc3)cc2[nH]c1=O (stereo not drawn) [Compound 160]
0.251 µM | 0.501 µM | CCc1cc2ccc(C(C)(C#N)CCOc3ccc(C#N)cc3)cc2[nH]c1=O (stereo not drawn) [Compound 161]
1 µM | > 10 µM | CCc1cc2ccc(C(C)(C#N)CCOc3ccc4oc(C)c(C)c4c3)cc2[nH]c1=O (stereo not drawn) [Compound 162]
1.26 µM | 0.398 µM | CCc1cc2ccc(C(C)(C#N)CCOc3cccc4c3OCCO4)cc2[nH]c1=O (stereo not drawn) [Compound 163]
0.251 µM | 0.631 µM | CCc1cc2ccc(C(C)(C#N)Cc3cccc(CCC#N)c3)cc2[nH]c1=O (stereo not drawn) [Compound 165]
0.501 µM | 10 µM | CCc1cc2ccc(C(C#N)(CCOc3ccccc3)C3CC3)cc2[nH]c1=O (stereo not drawn) [Compound 166]
1.58 µM | > 10 µM | CCc1cc2ccc(C(C)(C#N)CCOc3ccc(C(C)(C)C)cc3)cc2[nH]c1=O (stereo not drawn) [Compound 167]
0.1 µM | 3.16 µM | CCc1cc2ccc(C(C)(C#N)CC#Cc3cccc(F)c3)cc2[nH]c1=O (stereo not drawn) [Compound 184]
0.2 µM | 6.31 µM | Cc1cc2ccc([C@@](C)(C#N)[C@@H]3CCc4cc(C#N)ccc43)cc2[nH]c1=O [Compound 245]
0.2 µM | 0.631 µM | CCc1cc2ccc([C@](C)(C#N)C[C@@H]3CCc4cc(C)ccc4O3)cc2[nH]c1=O [Compound 251]
0.2 µM | 0.126 µM | CCc1cc2ccc([C@@](C)(C#N)C[C@@H]3CCc4cc(C)ccc4O3)cc2[nH]c1=O [Compound 252]
0.1 µM | 1.58 µM | CCc1cc2ccc(C(C#N)(CC)CCOc3ccc(C#N)cc3)cc2[nH]c1=O (stereo not drawn) [Compound 271]
0.2 µM | 0.2 µM | Cc1cc2ccc([C@@](C)(C#N)[C@H]3CCc4cc(C#N)ccc43)cc2[nH]c1=O [Compound 389]
0.2 µM | 0.631 µM | CCc1cc2ccc(C(C#N)(CC)C3CCc4ccc(F)cc43)cc2[nH]c1=O (stereo not drawn) [Compound 391]

The next lines start with the compound.

SMILES | IC50 (Human PARP-1 enzyme) | IC50 (HCT116 cells)
CCc1cc2ccc(C(C)(C#N)CCOc3ccc(Cl)cc3)cc2[nH]c1=O (stereo not drawn) [Compound 146] | 0.398 µM | 0.398 µM
CCc1cc2ccc(C(C)(C#N)CCOc3ccc(OC)cc3)cc2[nH]c1=O (stereo not drawn) [Compound 147] | 0.158 µM | 0.501 µM
CCc1cc2ccc(C(C)(C#N)CCOc3ccccc3C)cc2[nH]c1=O (stereo not drawn) [Compound 148] | 0.316 µM | 0.316 µM
CCc1cc2ccc(C(C)(C#N)CCOc3ccc(C)cc3)cc2[nH]c1=O (stereo not drawn) [Compound 149] | 0.398 µM | 0.631 µM
CCc1cc2ccc(C(C)(C#N)CCOc3cccc(Cl)c3)cc2[nH]c1=O (stereo not drawn) [Compound 151] | 0.501 µM | 0.631 µM
CCc1cc2ccc(C(C)(C#N)CCOc3ccccc3Cl)cc2[nH]c1=O (stereo not drawn) [Compound 152] | 0.398 µM | 0.631 µM
CCc1cc2ccc(C(C)(C#N)CCOc3ccccc3Br)cc2[nH]c1=O (stereo not drawn) [Compound 153] | 0.316 µM | 0.2 µM
CCc1cc2ccc(C(C)(C#N)CCOc3ccc(Cl)cc3Cl)cc2[nH]c1=O (stereo not drawn) [Compound 154] | 1.26 µM | 0.398 µM
CCc1cc2ccc(C(C)(C#N)CCOc3ccc(SC)cc3)cc2[nH]c1=O (stereo not drawn) [Compound 155] | 0.501 µM | 6.31 µM
CCc1cc2ccc(C(C)(C#N)CC3CN(C)c4ccccc4O3)cc2[nH]c1=O (stereo not drawn) [Compound 156] | 0.316 µM | 2 µM
CCc1cc2ccc(C(C)(C#N)CCOc3ccc4ccccc4c3)cc2[nH]c1=O (stereo not drawn) [Compound 157] | 1.58 µM | 1.58 µM
